Data published in a melting point compilation (Tetko et al.; mined from patent text by program, amines drawn as free bases though some values may be those of a salt).

SMILES | melting point [°C]
CC#CCOc1ccc(S(=O)C(C(=O)NO)C2CCCCC2)cc1 (stereo unspecified) | 188
FC(F)(F)COC(c1ccccc1)(c1ccccc1)c1ccccc1 | 111
COCCc1nc2c(N)nc3ccc(CCC(=O)N(C)C)cc3c2n1CCCN1CCCC1=O | 184 to 186
COc1ccc(-c2nc(CCl)nc3cc(OC)c(OC)cc23)cc1OC | 183 to 184
Oc1ncc(-c2cccc(C(F)(F)F)c2)cn1 | 283 to 285
FC(F)(F)C(F)(F)C(F)(F)COc1ccnc(CSc2nc3cscc3[nH]2)c1 | 117
CCOC(=O)c1cc(O)c2nc(C3CC3)n(C)c2c1 | 201 to 202
COC(=O)COc1nc(Cl)c(Cl)cc1Cl | 99 to 103
Cc1ccc(S(=O)(=O)Oc2cc(C=O)cc(OS(=O)(=O)c3ccc(C)cc3)c2OS(=O)(=O)c2ccc(C)cc2)cc1 | 159
CC1(C)OC(=O)C(C(=O)Nc2ccc(Cl)c(Cl)c2)=C(O)O1 | 132 to 134
CCOC(=O)CNC(=O)C(C)(C)c1ccc(C2=NC(C)(C)Cc3cc(OC)c4c(c32)CC(C)(C)O4)cc1 | 133 to 138
CC(C)=CCCC(C)C1CCC2C3CC(O)C4CC(O)CCC4(C)C3CCC12C (stereo unspecified) | 188 to 190
CS(=O)CCNC(=O)c1cc2cc(S(N)(=O)=O)sc2s1 (stereo unspecified) | 242 to 243
CCCCN(CCCC)c1ccc(C=CC=CC=CC2=C(C#N)C(=C(C#N)C#N)OC2(c2ccccc2)C(F)(F)F)c(OC)c1 (stereo unspecified) | 208 to 210
O=[N+]([O-])c1ccc(Oc2cccc3cccnc23)c(Cl)c1 | 113 to 115
COc1ccncc1-c1cccc(OC2SCC(O)C(O)C2O)c1 (stereo unspecified) | 195
CCCCCCCCCCCCCCCCOC(=O)c1cc(C(=O)OCCCCCCCCCCCCCCCC)cc(S(=O)(=O)Cl)c1 | 48 to 50
CCC(=O)Nc1ccnn1-c1ncc(Cl)cc1Cl | 116 to 124
Cn1ccc(NC(=O)Nc2cccc3c2C2CC4(CCN2C3=O)SCCS4)n1 (stereo unspecified) | 135

SMILES | melting point [°C]
NS(=O)(=O)c1cc2c(c(C(=O)O)c1)OCCO2 | 272 to 274
CCn1c(=O)c2c(N3CCN(C)CC3)cc(Cl)cc2n(Cc2ccccc2)c1=O | 155 to 159
COc1ccc(CC(CCCC(C#N)(c2ccc(OC)c(OC)c2)C(C)C)[N+](=O)[O-])cc1OC (stereo unspecified) | 107 to 110
O=C(O)[C@H](Cc1ccsc1)NN1C(=O)c2ccccc2C1=O | 166 to 168
C#CCOc1cccc(-c2nc3cnncc3[nH]2)c1OC | 224
CC(=O)N(N)c1ccc(C(F)(F)F)cc1NC(=O)c1ccccc1 | 212 to 214
O=C(O)C1=Cc2cc(Cl)ccc2OC1C(F)(F)F (stereo unspecified) | 181 to 184
CCn1cc2c(n1)c(N)nc1ccccc12 | 240 to 241
COCCc1cccc2oc(C(=O)O)c(C)c12 | 138 to 140
CCCCC(CC(=O)Nc1cc(C(N)=O)ccc1C(C)(C)C)c1ccc(OCCCS(=O)(=O)CCC)cc1OC (stereo unspecified) | 108 to 128
CC(CC(C)(C)c1ccccc1)N=C(O)C(Cl)=C(Cl)C(=O)O (stereo unspecified) | 106 to 109
CC(C)(N)CNC(=O)Cc1ccccc1 | 68 to 71
Cc1cn2cc(Cl)ccc2n1 | 94 to 96
O=C1NC(=O)c2c(F)cccc21 | 176 to 179
C#CCOc1cc(C(=O)O)cc(S(N)(=O)=O)c1-c1ccccc1 | 154 to 155
Cc1ccc(-c2cnccn2)cc1 | 54 to 55
Cc1cc(-c2ccc(C(F)(F)F)cc2)cn2c(-c3nc(-c4ccc(N)nc4)no3)cnc12 | 257
CNC(=O)c1cccc(-c2c(C)cc(C)cc2C)c1 | 143
Cn1c(=O)c2c(ncn2CCOC(=O)C(C)(C)Oc2ccc(Cl)cc2)n(C)c1=O | 131 to 132

SMILES | melting point [°C]
OCc1cn(-c2ccc(F)c(C(F)F)c2)cn1 | 133 to 134
O=c1[nH]c2ccc(Cn3ccnc3)cc2[nH]1 | 254
O=C(NCCCc1ccccc1)Nc1ccccn1 | 127 to 128
COc1cc2c(cc1OC)CCC(C(=O)N1CCN(C(=O)c3cc(OC)c(OC)cc3OC)CC1)=C2 | 171 to 172
CC1=Nc2ccccc2CC(c2ccc(C)s2)N1C (stereo unspecified) | 139 to 140
CCOC(=O)c1sc(C)nc1OCCCc1cc(OC(C)C)nn1Cc1ccc(Cl)cc1Cl | 92 to 93
Nc1cccc(-c2ccc(CCN3CCC4(CCCC4)CC3)cc2)n1 | 130 to 132
CN(C)CCCCNc1nc2cc(Cl)c(Cl)cc2nc1-c1ccccn1 | 81 to 83
O=C1NC(=O)C2c3cccc4cccc(c34)C12 (stereo unspecified) | 242 to 246
CSc1nccc(-c2c(-c3ccc(F)cc3)ncn2C2CCN(C)CC2)n1 | 181 to 182
CONC(C(C)=O)c1cc(-n2c(=O)cc(C(F)(F)F)n(C)c2=O)ccc1Cl (stereo unspecified) | 160 to 161
O=CC(=Cc1ccccc1Cl)C(C=O)=Cc1ccccc1Cl | 177 to 178
C[C@@H]1CN(c2ncc(Cl)cc2Cl)CCN1c1nc2c(Br)cc(C(F)(F)F)cc2[nH]1 | 135 to 137
Cc1cc(C)n2nc(S(=O)(=O)Nc3c(Cl)cccc3Cl)c(C#N)c2n1 | 280 to 285
Cc1nc2ccc3c(c2o1)C(O)(CC#N)C(C(C)C)C3 (stereo unspecified) | 149 to 152
COC(=O)C(=NOCc1ccccc1)C(C)=O | 35 to 36
Nc1nc2c(=O)c3cc(Cl)ccc3oc2cc1-c1nnn[nH]1 | > 300
COc1ccc(C(=O)CCCCCBr)cc1OC | 38 to 40

More lines, now with the values ahead:

melting point [°C] | SMILES
76 to 78 | Nc1ncnc2c1c(-c1ccc(Oc3ccccc3CN3CCCCC3)cc1)cn2C1CCOC1 (stereo unspecified)
62 to 66 | CCOC(=O)c1cnc(S(=O)(=O)Cc2ccccc2)n1-c1c(CC)cccc1CC
182 to 184 | O=C(Nc1cc2ncc(CN3CCCC3)cc2cc1N1CCCC1)c1ccc(-c2ccc(F)cc2)cc1
85 to 90 | O=C(Cc1cc(F)cc(F)c1)N[C@@H](Cc1cc2ccccc2[nH]1)C(=O)N[C@@H]1C(=O)Nc2ccccc2S[C@@H]1c1ccccc1
90 | CCCCCCCCOc1ccc(-c2ncc(OC(=O)[C@H]3CCCO3)cn2)cc1
75 to 77 | COc1cccc(CN2CC=C(/C=C/c3ccccc3)CC2)c1
> 265 | O=c1c2ccc(Cl)cc2[nH]c2c(O)nn(Cc3ccco3)c(=O)c12
139 to 141 | Nc1ccc(-c2ncnn2-c2ccccc2F)cc1
199 to 200 | COc1ccc(-c2cc(=O)cc(N3CCOCC3)s2)cc1
143 to 145 | O=C1c2ccccc2C(=O)N1CCCCOc1ccc(-n2cnnn2)cc1
115 to 118 | O=C1C(c2cc3c(cc2O)OCCO3)c2c(F)cccc2N1C(c1ccccc1)c1ccccc1 (stereo unspecified)
229 to 230 | Cc1cc(-c2nc3cccnn3c2-c2ccnc(NC(=O)NCC(F)(F)F)c2)ccc1F
> 275 | CCOC(=O)Nc1nc(-c2ccccc2)c(-c2nc3ccccc3c(=O)n2-c2ccc(C)cc2)s1
135 to 137 | COCc1cc2c(s1)CCCc1cc(=O)n(-c3ccc(Cl)cc3)nc1-2
234 to 235 | O=C1NCCc2c(-c3ccc(F)c(Cl)c3)[nH]c3cccc1c23
105 to 106 | C#CC1(COCc2ccccc2)OC(n2ccc(=O)[nH]c2=O)C(OC(C)=O)C1OCc1ccccc1 (stereo unspecified)
159 to 160 | O=C(NCCO)c1cccc(-c2cccc3nn(Cc4ccccc4F)cc23)c1
175 | COc1ccc(S(=O)(=O)N2C(=O)C(NCCC(=O)OC(C)(C)C)(c3ccccc3OC)c3cc(Cl)ccc32)c(OC)c1 (stereo unspecified)
80 | CCO[C@@H]1C[C@@H](C(=O)NC)N(S(=O)(=O)c2ccc(Cl)c(COc3cccc4c(-n5ccnc5)cc(C)nc34)c2Cl)C1
273 | Nc1ccc(-c2noc(-c3cnc4ccc(-c5ccc(Cl)cc5)cn34)n2)cn1

melting point [°C] | SMILES
232 to 238 | Cn1ccnc1Sc1ccc(Nc2c(C#N)cnc3cc(/C=C/CCN4CCOCC4)ccc23)cc1Cl
114 | Cc1cc(Nc2ccnc(Nc3ccc(S(=O)(=O)N(C)C4CCN(CCS(C)(=O)=O)CC4)cc3)n2)ccc1F
197 | Cc1csc2c1cc(C(=O)c1ccccc1)n2CC(=O)O
118 to 120 | O=C(O)COc1cccc(CCc2nc(-c3ccccc3)c(-c3ccccc3)s2)c1
234 to 236 | O=C(O)Cc1cccc2c(-c3ccc(Cl)cc3)nccc12
130 to 131 | Cc1cc(C)c(S(=O)(=O)NCCCCOc2ccc(-n3ccnc3)cc2)c(C)c1
182 to 183 | CCOC(=O)Nc1cccc(Nc2c3cccc(C)c3nc3c(C(=O)NCCN(C)C)cccc23)c1C
154 to 155 | Cc1ccc2c3c(ccc2n1)OC[C@H](CN1CCN(c2cccc4c2OCCO4)CC1)O3
196 to 197 | CCCn1c(COC)nc2c(N)nc3ccc(OCCCN4CCN(c5ccccn5)CC4)cc3c21
97 to 100 | CS(=O)(=O)c1ccc(-c2cnn(C3Cc4ccccc4C3)c(=O)c2-c2ccc(F)cc2)cc1
187 to 188 | CS(=O)(=O)c1ccc(/C(=C2\CCN(CCO)C2=O)c2ccc(Cl)cc2)cc1
95.8 to 97 | O=C(OCc1ccccc1)c1ccc(OCc2cccc(COc3ccc(C(=O)OCc4ccccc4)cc3Cl)c2)c(Cl)c1
183 | CCNC(=O)c1ccc(-c2ccc(-c3ccccc3)c(-c3ccc4c(c3)C(C)(C)CCC4(C)C)c2)cc1
186 | NCCOc1ccc(C=CC(=O)N2CCc3c([nH]c4ccccc34)C2c2ccc3c(c2)CCO3)cc1 (stereo unspecified)
178 to 179 | CCc1ccc2oc(-c3ccc(C=C4C(=O)C5(C)CCC4C5(C)C)cc3)nc2c1 (stereo unspecified)
116 to 122 | Nc1cccc(Cn2c(-c3ccc(NC(=O)c4cccc(Br)c4)cc3)ccc2-c2ccccc2Cl)n1
245 to 246 | O=Cc1ccc2nc3c(cc2c1)-c1cccc2cccc-3c12
60 to 62 | COc1ccc(C(=O)c2ccccc2N)cn1
249 to 251 | COc1ccc(N2CCN(CCn3c(=O)[nH]c4sccc4c3=O)CC2)cc1
158 to 161 | CON=Cc1ccc(-c2ccccc2NC(=O)c2c(C)nn(C)c2F)cc1F
